Test results taken from US10591497B2, “Immunoassay for synthetic cannabinoids of the adamantyl indazole/indole-3-carboxamide family” (Randox Laboratories Limited, priority 2014, dated 2020).
Converted amounts (≈) assume the structure as drawn.

Tested on: antibody derived from Immunogen of Example 9
Experiment: Competitive immunoassay (ELISA), IC50 derivation and cross-reactivity
Format: binding, sheep
Conditions: for % CROSS-REACTIVITY: compared to 100% for AKB48; for % CROSS-REACTIVITY / IC50: Tracer 1 of Example 10; for IC50: Table 2, generated as per AKB48 and Table 1; for binding to the antibodies of the invention: "does not bind" = cross-reactivity of less than 2% vs 100% for AKB48 under Example 12 conditions
Experimental: All cross-reactivity are measured herein under the experimental conditions of Example 12 and compared to 100% for AKB48.
IgG is extracted from the antisera and immobilised on a 96 well ELISA plate (coated for 2 hours at +37° C. at 10 ug/ml in a Phosphate Buffered Saline pH7.2). Unbound material is removed by washing with Tris Buffered Saline (TBS) containing tween ([…]) over 10 minutes. Standard AKB48 is added at the concentrations quoted in Table 1, followed by detection agent 1 (FIG. 2) at 1/140 k in a dilution buffer. After incubation (60 mins) at +15 to +25° C. to allow a competition reaction to take place, the microtitre plate is washed with TBS containing Tween™ to remove excess reagents. The enzyme substrate […] (125 μl) is added (Kem-en-Tec Cat. No. 4800). After a 20 minute incubation period to allow maximum colour development, the colour reaction is stopped by the addition of sulphuric acid (0.2M, 120 μl). This produces a colour change from blue to yellow, and the absorbances are read at 450 nm. A standard curve is then constructed and the IC50 calculated as the AKB48 concentration which produces 50% inhibition of maximal signal. This process was repeated for synthetic cannabinoid members as stated in Table 2 to assess cross-reactivity.
The cross-reactivity (CR) was calculated using the equation below. All calculations were based upon binding and displacement at the 50% of maximum OD (optical density) binding point. The maximum OD is the signal generated using tracer alone and 50% displacement (inhibition) corresponds to the IC50. […]
The extent of antibody binding to synthetic cannabinoids of various families was assessed (Table 2). For the cross-reactants with IC50 values, standard curves were derived for each analyte (as per AKB48 and Table 1). […] In all cases, the cross-reactivity set out in Table 2 was measured using an antibody derived from the immunogen of Example 9 and Tracer 1 of Example 10.

[1] = single cross-reactant at 300 ng/ml
[2] = standard curve derived for each analyte

SMILES	% CROSS-REACTIVITY [1] [%]	binding to the antibodies of the invention	also measured
O=C(O)c1cn(CC2CCCCC2)c2ccccc12 [3-Carboxyindole metabolite of BB-22]	<1.00	–	–
CCCCCn1nc(C(=O)NC23CC4CC(CC(O)(C4)C2)C3)c2ccccc21 [3-OH-AKB48, (3-hydroxy-1-adamantyl) 1-pentylindazole-3-carboxamide]	–	–	IC50: 0.18 ng/mL (≈ 0.000472 µM); % CROSS-REACTIVITY [2]: 1163.53%
CCCCCn1cc(C(=O)NC23CC4CC(CC(O)(C4)C2)C3)c2ccccc21 [3-OH-SDB001]	–	–	IC50: 4.40 ng/mL (≈ 0.0116 µM); % CROSS-REACTIVITY [2]: 47.30%
O=C(O)c1cn(CCCCCF)c2ccccc12 [3-carboxyindole of 5-fluoro PB-22]	<1.00	–	–
O=C(Oc1cccc2cccnc12)c1cn(CCCCCF)c2ccccc12 [5-fluoro PB-22]	<1.00	–	–
CC1(C)C(C(=O)c2cn(CC3CCOCC3)c3ccccc23)C1(C)C [A-834735]	<1.00	–	–
CC1(C)C(C(=O)c2cn(CCN3CCOCC3)c3ccccc23)C1(C)C [A-7969260]	<1.00	–	–
O=C(O)CCCCn1cc(C(=O)C23CC4CC(CC(C4)C2)C3)c2ccccc21 [AB001 N-Pentanoic Acid]	<1.00	do not bind	–
O=C(c1cn(CCCCCO)c2ccccc12)C12CC3CC(CC(C3)C1)C2 [AB001 N-Pentanol]	<1.00	do not bind	–
CCCCCn1nc(C(=O)N[C@H](C(N)=O)C(C)C)c2ccccc21 [AB Pinaca]	<1.00	does not bind	–
O=C(NC12CC3CC(CC(C3)C1)C2)c1nn(CCCCCF)c2ccccc12 [AKB48 N-(5-fluoropentyl)]	–	–	IC50: 2.10 ng/mL (≈ 0.00548 µM); % CROSS-REACTIVITY [2]: 98.90%
O=C(O)CCCCn1nc(C(=O)NC23CC4CC(CC(C4)C2)C3)c2ccccc21 [AKB48 N-Pentanoic acid (LK1461)]	<1.00	do not bind	–
CCCCCn1cc(C(=O)NC23CC4CC(CC(C4)C2)C3)c2ccccc21 [AKB48, N-(1-adamantyl)-1-pentyl-1H-indole-3-carboxamide]	–	–	% B/B0 (AKB48 concentration 0.25 ng/ml): 88%; % B/B0 (AKB48 concentration 0.74 ng/ml): 69%; % B/B0 (AKB48 concentration 2.22 ng/ml): 50%; % B/B0 (AKB48 concentration 6.67 ng/ml): 26%; % B/B0 (AKB48 concentration 20.00 ng/ml): 12%; IC50: 2.08 ng/mL (≈ 0.00571 µM); % CROSS-REACTIVITY [2]: 100.00%
N#CCCCCn1cc(C(=O)c2cccc3ccccc23)c2ccccc21 [AM2232]	<1.00	–	–
O=C(c1ccccc1I)c1cn(CCCCCF)c2ccccc12 [AM-694]	<1.00	does not bind	–
CN1CCCCC1Cn1cc(C(=O)C23CC4CC(CC(C4)C2)C3)c2ccccc21 (stereo not drawn) [AM-1248]	<1.00	does not bind	–
O=C(c1cccc2ccccc12)c1cn(CCCCCF)c2cc(O)ccc12 [AM-2201 6-Hydroxyindole]	<1.00	–	–
O=C(c1cccc2ccccc12)c1cn(CCCC(O)CF)c2ccccc12 (stereo not drawn) [AM-2201 N-(4-Hydroxypentyl)]	<1.00	–	–
O=C(c1cccc2ccccc12)c1cn(CCCCCF)c2ccccc12 [AM-2201]	<1.00	–	–
O=C(Oc1cccc2cccnc12)c1cn(CC2CCCCC2)c2ccccc12 [BB-22]	<1.00	–	–
CCCCCn1c(C)c(C(=O)c2cccc3ccccc23)c2ccccc21 [JWH-007]	<1.00	–	–
CCCn1c(C)c(C(=O)c2cccc3ccccc23)c2ccccc21 [JWH-015]	<1.00	–	–
CCCCCn1cc(C(=O)c2cccc3ccccc23)c2c(O)cccc21 [JWH-018 4-Hydroxyindole]	<1.00	–	–
CCCCCn1cc(C(=O)c2cccc3ccccc23)c2cc(O)ccc21 [JWH-018 5-Hydroxyindole]	<1.00	–	–
CCCCCn1cc(C(=O)c2cccc3ccccc23)c2ccc(O)cc21 [JWH-018 6-Hydroxyindole]	<1.00	–	–
O=C(c1cccc2ccccc12)c1cn(CCCCCO)c2ccccc12 [JWH-018 N-(5-Hydroxypentyl)]	<1.00	–	–

SMILES	% CROSS-REACTIVITY [1] [%]	binding to the antibodies of the invention	also measured
O=C(O)CCCCn1cc(C(=O)c2cccc3ccccc23)c2ccccc21 [JWH-018 N-Pentanoic acid]	<1.00	–	–
CCCCCn1cc(C(=O)c2cccc3ccccc23)c2ccccc21 [JWH-018]	<1.00	do not bind	–
CCCCCCn1cc(C(=O)c2cccc3ccccc23)c2ccccc21 [JWH-019]	<1.00	–	–
C=CCCCn1cc(C(=O)c2cccc3ccccc23)c2ccccc21 [JWH-022]	<1.00	–	–
CCCCn1cc(C(=O)c2cccc3ccccc23)c2c(O)cccc21 [JWH-073 4-Hydroxyindole]	<1.00	–	–
CCCCn1cc(C(=O)c2cccc3ccccc23)c2cc(O)ccc21 [JWH-073 5-Hydroxyindole]	<1.00	–	–
CCCCn1cc(C(=O)c2cccc3ccccc23)c2ccccc21 [JWH-073]	<1.00	do not bind	–
CCCCCn1cc(C(=O)c2ccc(OC)c3ccccc23)c2ccccc21 [JWH-081]	<1.00	–	–
O=C(c1cccc2ccccc12)c1cn(CCN2CCOCC2)c2ccccc12 [JWH-200]	<1.00	do not bind	–
CCCCCn1cc(C(=O)Cc2ccccc2Cl)c2ccccc21 [JWH-203]	<1.00	does not bind	–
CCCCCn1cc(C(=O)c2ccc(CC)c3ccccc23)c2ccccc21 [JWH-210]	<1.00	–	–
COc1ccccc1CC(=O)c1cn(CCCCCC(=O)O)c2ccccc12 [JWH-250 N-(5-Carboxypentyl)]	<1.00	do not bind	–
COc1ccccc1CC(=O)c1cn(CCCCCO)c2ccccc12 [JWH-250 N-(5-Hydroxypentyl)]	<1.00	do not bind	–
CCCCCn1cc(C(=O)c2ccc(Cl)c3ccccc23)c2ccccc21 [JWH-398]	<1.00	–	–
O=C(c1c[nH]c2ccccc12)C12CC3CC(CC(C3)C1)C2 [N-Desalkyl AB001]	<1.00	–	–
CCCCCn1cc(C(=O)O)c2ccccc21 [PB-22 3-Carboxyindole metabolite]	<1.00	–	–
CCCCCn1cc(C(=O)Oc2cccc3cccnc23)c2ccccc21 [PB-22]	<1.00	does not bind	–
CCCCCn1cc(C(=O)c2ccc(OC)cc2)c2ccccc21 [RCS-4]	–	does not bind	IC50: 124.55 ng/mL (≈ 0.387 µM); % CROSS-REACTIVITY [2]: 1.67%
COc1ccccc1CC(=O)c1cn(CCC2CCCCC2)c2ccccc12 [RCS-8]	<1.00	does not bind	–
CCCCCn1cc(C(=O)NC23CC4CC(CC(C4)C2)C3)c2ccccc21 [SDB001]	–	–	IC50: 52.00 ng/mL (≈ 0.143 µM); % CROSS-REACTIVITY [2]: 4.07%
O=C(O)CCCCn1cc(C(=O)NC23CC4CC(CC(C4)C2)C3)c2ccccc21 [SDB-001 N-Pentanoic acid (LK1404)]	<1.00	do not bind	–
O=C(NC12CC3CC(CC(C3)C1)C2)c1cn(CCCCCF)c2ccccc12 [STS135]	–	–	IC50: 24.76 ng/mL (≈ 0.0647 µM); % CROSS-REACTIVITY [2]: 8.41%
CC1(C)C(C(=O)c2cn(CCCCC(=O)O)c3ccccc23)C1(C)C [UR-144 N Pentanoic acid]	<1.00	–	–
CCCCCn1cc(C(=O)C2C(C)(C)C2(C)C)c2ccccc21 [UR-144]	<1.00	do not bind	–
CC1(C)C(C(=O)c2cn(CCCCCF)c3ccccc23)C1(C)C [XLR-11]	<1.00	do not bind	–
